Consider two molecules from patent publication US11370769B2, “TRPC5 inhibitors and methods of using same” (BOARD OF REGENTS OF THE UNIVERSITY OF NEBRASKA, priority 2017, dated 2022).

The subject of data set [1] is kinase. The data set is described as follows: standard kinase profiling assays. It counts as biochemical.
The subject of data set [2] is podocytes. The data set is described as follows: ROS assay in wild-type podocytes treated with AngII. It is filed as cell-based, mouse. Particulars: WT podocytes, AngII 10 μM, 30 μM compound, 3 hours. The method, then:
Podocyte culture and viral transduction: Immortalized mouse podocytes were cultured as previously described (10, 11). Podocyte viral transduction was performed using lentivirus as previously described (10, 11). Briefly, lentivirus production was carried out in HEK293T cells at 60% confluence, and viral particles were collected two days after transfection and purified by centrifugation at 1,000 rcf for 5 min. Purified lentivirus was frozen at −80° C. until further use. Podocytes were transduced with lentivirus after 7 days of differentiation, and assays were performed 5 days after viral transduction.
ROS and cell viability assays: For ROS experiment in FIG. 4A, mature podocytes were cultured as previously described. Cells were incubated with CellRox Deep Red reagent (ThermoFisher) for 30 min at 37° C. Then cells were treated with DMSO, 10 μM angiotensin II, 10 μM angiotensin II with 30 μM AC1903, or 10 μM angiotensin II with 30 μM N-acetyl-L-cysteine (NAC) for 3 hours at 37° C. Cells were washed with PBS twice and fluorescence images were observed using Olympus IX71 microscopy. Fluorescence intensities were then analyzed using ImageJ software.

Data set [3] concerns AT1R Tg rats. In words: AT1R Tg rat model of progressive FSGS. It counts as in vivo. How it is done:
(§1) Animals and chemicals: Littermates of wild-type (WT) and AT1R TgNeph-hAT1R/185 transgenic (AT1R Tg) rats were housed under a controlled environment with a 12-hour light-dark cycle and access to food and water ad libitum, unless otherwise described. All animal experiments were performed in accordance to the guidelines established and approved by the Animal Care and Use Committee at Brigham and Women's Hospital, Harvard Medical School (Animal Protocol No. 01538). AT1R Tg rats were placed in the Onset cohort when measured proteinuria was >5 mg/day (at approximately 12 weeks of age) on two separate 24-hour urine collections. AT1R Tg rats were placed in the Advanced cohort when measured proteinuria was >25 mg/day (at approximately 18 weeks of age) on two separate 24-hour urine collections. These thresholds were determined after detailed histologic and phenotypic characterization of AT1R Tg rats compared to WT littermates (all combined, n=91 WT rats and n=122 AT1R Tg rats were studied). The Dahl salt-sensitive (S) inbred strain is maintained at University of Mississippi Medical Center (UMMC) and was originally obtained from University of Toledo-College of Medicine (SS/Jr). All animal experiments performed at UMMC were in accordance to the guidelines established and approved by the Institutional Animal Care and Use Committee. Animals used for this studied were provided either low-salt diet [TD7034, 0.3% NaCl and/or high-salt diet [TD94217, 2.0% NaCl] from Harlan Teklad, Madison, Wis. For onset study, at 4 weeks of age, groups of age-matched male S were weaned to the low-salt diet and divided into two groups: vehicle (n=8) and AC1903 groups (n=8). At 6 weeks of age, both groups were placed on the high-salt diet and concurrently treated with either vehicle or AC1903 for 1-week (Onset). For Advanced study, similarly at 4 weeks of age, groups of age-matched male S were weaned to the low-salt diet and divided into two groups: vehicle (n=9) and AC1903 groups (n=11). At 6 weeks of age, both groups were placed on the high-salt diet. At week 7, concurrent with high-salt diet, animals were treated with either vehicle or AC1903 for 1-week (Advanced). At the conclusion of each study, animals were initially anesthetized under 2-3% isoflurane/O2 gas, a catheter attached to a fluid filled pressure transducer was placed in the aorta, isoflurane gas was reduced to 1.5%, and mean arterial pressure was measured for ˜5 min period using PowerLab 4/30 system (ADI Instruments, Co) as done previously. All chemicals were purchased from Sigma-Aldrich unless otherwise described.
(§2) Chemical preparation and IP administration: ML204 and AC1903 were prepared from powder in a single batch for each in vivo experiment to avoid variability. Immediately prior to injections, ML204 or AC1903 solution was placed on a heated shaker at 48° C. and 800 RPM. Vehicle was prepared in the same fashion. Injection volume was determined by body weight (2 mL vehicle/compound per kg body weight). Body weight was measured at the time of injection.
(§3) Urine collection and assay: For urine collections, rats were housed individually in a metabolic cage supplied with food and water. Urine was collected into a 50 mL falcon tube for 24 hours. Total urine volume was measured and then centrifuged at 3,200 rcf for 10 min at 4° C. Albumin quantification was done according to previously published protocol (11), involving multiple dilutions of urine from each animal compared to Bovine Serum Albumin (BSA) standards. Coumassie Blue stained gels were quantified by densitometry using ImageJ software. As an additional control, the rat ELISA Albumin kit (Exocell) was used for albumin quantification according to the manufacturer's recommendations and yielded the same results. Urine protein was measured using QuanTtest® Red Total Protein Assay System (Quantimetrix, Redondo Beach, Calif.) and expressed as mg protein/24 hours. […]

The test system of data set [4] is Dahl S rats. The data set is described as follows: Dahl salt-sensitive rat model of hypertension-induced FSGS. It counts as in vivo. How it is done: as §1, §2, §3

Regarding `c1ccc(Cn2c(NCc3ccco3)nc3ccccc32)cc1` [AC1903], the “off-target effects in kinase profiling” value in data set [1] was “not found to have any off-target effects”. The “AngII-induced ROS” value in data set [2] is given as “blocked”. In data set [3] (AC1903-treated AT1R Tg rats), the “numbers of podocytes per glomerulus” value is “approximately 120 podocytes/glom”. Besides, in data set [3] (AC1903 treatment), the BUN entry is “did not affect”, the body weight result was “did not affect” and the creatinine entry is given as “did not affect”. Also, in data set [3] (Advanced, AC1903 50 mg/kg), the “podocyte numbers compared to vehicle treated controls” value is recorded as “preserved numbers of podocytes” and the pseudocyst formation result is “significant reduction in pseudocyst formation”. Also, in data set [3] (Advanced, AC1903 50 mg/kg twice daily i.p. for 7 days), the proteinuria result is listed as “sufficient to suppress severe proteinuria”. Also, the “numbers of podocytes per glomerulus” value in data set [4] (AC1903 treated Dahl S rats, stated similar to WT and AC1903-treated AT1R Tg rats) was “approximately 120 podocytes/glom”. Moreover, in data set [4] (AC1903 treatment), the BUN entry is recorded as “no effect”, the body weight result is listed as “no effect”, the creatinine entry is given as “no effect” and the “mean arterial pressure (MAP)” value was “did not affect”. Besides, the “numbers of podocytes per glomerulus compared to vehicle-treated controls” value in data set [4] (Advanced, AC1903 50 mg/kg) is “higher”. In data set [4] (Advanced: 50 mg/kg, treatment day 7 to day 14 of 2% NaCl), the proteinuria result is “significant suppression of proteinuria”. Further, the “rate of progressive proteinuria” value in data set [4] (Onset: 50 mg/kg twice daily i.p. from start of 2% NaCl diet, 1 week) is listed as “significantly reduced”.

Turning to `Cc1cc(N2CCCCC2)nc2ccccc12` [ML204, reference compound], in data set [3] (Advanced cohort, 25 mg/kg twice daily i.p., at 7 days and 14 days), the proteinuria progression result is on record as “suppressed progression of proteinuric disease”. In addition, the podocyte pseudocyst formation entry in data set [3] (Advanced, ML204) was “prevented pseudocyst formation”. The “podocyte numbers (morphometric analysis)” value in data set [3] (Advanced, ML204 vs PBS-treated Tg rats) is “prevented podocyte loss”. In data set [3] (ML204 treatment), the BUN result is on record as “did not affect”, the body weight result is on record as “did not affect” and the creatinine entry was “did not affect”. The proteinuria entry in data set [3] (Onset cohort, ML204 twice daily i.p. for 7 days) was “complete suppression of proteinuria down to baseline levels”.
